For 20 molecules, Ki, EC50 and Ratio Ki results are on record in ChEMBL document CHEMBL4368866, “Discovery of a 3,4,5-trisubstituted-1,2,4-triazole agonist with high affinity and selectivity at the somatostatin subtype-4 (sst4) receptor” (Medchemcomm, 2018).

Assay [1] concerns the target T1, Somatostatin receptor type 4 (Homo sapiens, UniProt P31391). As to the kind of experiment: Displacement of [125I]-Tyr-SRIF from recombinant human SST4 receptor expressed in CHOK1 cell membranes after 90 mins by gamma counting method. On the technique in general: Loss of bound radioactivity is the signal in a displacement assay; it reports binding, not function.
Assay [2] deals with T2, Somatostatin receptor type 2 (Homo sapiens, UniProt P30874). As to the kind of experiment: Displacement of [125I]-Tyr-SRIF from recombinant human SST2A receptor expressed in CHOK1 cell membranes after 90 mins by gamma counting method.
The target of assay [3] is T2, Somatostatin receptor type 2. The assay is described as follows: Displacement of 3-[125I]iodotyrosyl25-somatostatin-28 from recombinant human SST2 receptor expressed in CHOK1 cell membranes after 45 mins by scintillation counting method.
Assay [4] has as its target T1, Somatostatin receptor type 4. As to the kind of experiment: Displacement of 3-[125I]iodotyrosyl25-somatostatin-28 from recombinant human SST4 receptor expressed in CHOK1 cell membranes after 45 mins by scintillation counting method.
The target is the same in assay [5]. As to the kind of experiment: Agonist activity at recombinant human SST4 receptor expressed in CHOK1 cell membranes assessed as inhibition of forskolin-stimulated cAMP accumulation measured after 2.5 to 20 hrs by TR-FRET assay. The assay is classed as functional, cell-based. A general note: cAMP levels reflect the balance of adenylyl cyclase and phosphodiesterase activity.

For assay [6], the species on record is Homo sapiens. The assay is described as follows: Selectivity ratio of Ki for displacement of [125I]-Tyr-SRIF from SST3 receptor (unknown origin) to Ki for displacement of [125I]-Tyr-SRIF from recombinant human SST4 receptor expressed in CHOK1 cell membranes.
The species named for assay [7] is Homo sapiens. As to the kind of experiment: Selectivity ratio of Ki for displacement of [125I]-Tyr-SRIF from SST1 receptor (unknown origin) to Ki for displacement of [125I]-Tyr-SRIF from recombinant human SST4 receptor expressed in CHOK1 cell membranes.
Assay [8] concerns the target Somatostatin receptor type 5 (Homo sapiens, UniProt P35346). The assay is described as follows: Displacement of [125I]-Tyr-SRIF from SST5 receptor (unknown origin) after 90 mins by gamma counting method.
The species named for assay [9] is Homo sapiens. As to the kind of experiment: Selectivity ratio of Ki for displacement of [125I]-Tyr-SRIF from SST5 receptor (unknown origin) to Ki for displacement of [125I]-Tyr-SRIF from recombinant human SST4 receptor expressed in CHOK1 cell membranes.
Assay [10] concerns the target Somatostatin receptor type 1 (Homo sapiens, UniProt P30872). As to the kind of experiment: Displacement of [125I]-Tyr-SRIF from SST1 receptor (unknown origin) after 90 mins by gamma counting method.
For assay [11], the species on record is Homo sapiens. The assay is described as follows: Selectivity ratio of Ki for displacement of [125I]-Tyr-SRIF from recombinant human SST2A receptor expressed in CHOK1 cell membranes to Ki for displacement of [125I]-Tyr-SRIF from recombinant human SST4 receptor expressed in CHOK1 cell membranes.
The target in assay [12] is Somatostatin receptor type 3 (Homo sapiens, UniProt P32745). The assay is described as follows: Displacement of [125I]-Tyr-SRIF from SST3 receptor (unknown origin) after 90 mins by gamma counting method.
Assay [13] addresses T2, Somatostatin receptor type 2. The assay is described as follows: Displacement of [125I]-LTT-SRIF-28 from recombinant human SST2 receptor expressed in CHO cell membranes after 60 mins by scintillation counting method.

pEC50, pKi: −log10 of the molar value.

T2 sequence (P30874 whole entry): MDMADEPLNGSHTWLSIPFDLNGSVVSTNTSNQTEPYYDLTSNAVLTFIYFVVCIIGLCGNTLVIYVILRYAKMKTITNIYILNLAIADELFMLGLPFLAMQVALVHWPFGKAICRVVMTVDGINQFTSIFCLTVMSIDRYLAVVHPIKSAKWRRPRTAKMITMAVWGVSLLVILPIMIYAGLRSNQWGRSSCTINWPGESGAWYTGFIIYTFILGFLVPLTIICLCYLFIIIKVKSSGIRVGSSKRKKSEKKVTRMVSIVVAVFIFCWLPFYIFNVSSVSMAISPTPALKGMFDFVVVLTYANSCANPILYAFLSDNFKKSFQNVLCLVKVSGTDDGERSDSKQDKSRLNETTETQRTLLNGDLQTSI
T1 sequence (P31391 whole entry): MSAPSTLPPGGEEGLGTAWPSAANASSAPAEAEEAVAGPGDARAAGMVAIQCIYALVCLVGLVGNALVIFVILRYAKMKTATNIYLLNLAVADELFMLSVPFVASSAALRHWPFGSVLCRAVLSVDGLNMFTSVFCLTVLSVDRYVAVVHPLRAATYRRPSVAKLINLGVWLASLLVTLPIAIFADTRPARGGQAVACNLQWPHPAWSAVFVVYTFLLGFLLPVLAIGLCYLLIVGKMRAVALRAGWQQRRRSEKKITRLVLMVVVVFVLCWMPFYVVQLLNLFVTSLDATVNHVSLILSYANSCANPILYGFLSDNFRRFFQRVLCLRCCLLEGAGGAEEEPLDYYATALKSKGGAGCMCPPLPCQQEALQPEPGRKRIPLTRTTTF
Sequence of Somatostatin receptor type 5 (P35346 whole entry): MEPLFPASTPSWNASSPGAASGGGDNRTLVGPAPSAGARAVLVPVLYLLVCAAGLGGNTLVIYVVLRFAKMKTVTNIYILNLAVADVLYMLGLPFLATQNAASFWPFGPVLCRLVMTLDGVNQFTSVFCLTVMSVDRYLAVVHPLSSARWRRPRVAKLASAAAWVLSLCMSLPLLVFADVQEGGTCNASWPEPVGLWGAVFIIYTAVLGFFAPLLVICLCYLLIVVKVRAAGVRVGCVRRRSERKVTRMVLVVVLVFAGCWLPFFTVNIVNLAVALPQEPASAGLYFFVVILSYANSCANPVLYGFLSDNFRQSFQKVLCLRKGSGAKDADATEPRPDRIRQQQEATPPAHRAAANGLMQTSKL
Sequence of Somatostatin receptor type 1 (P30872 whole entry): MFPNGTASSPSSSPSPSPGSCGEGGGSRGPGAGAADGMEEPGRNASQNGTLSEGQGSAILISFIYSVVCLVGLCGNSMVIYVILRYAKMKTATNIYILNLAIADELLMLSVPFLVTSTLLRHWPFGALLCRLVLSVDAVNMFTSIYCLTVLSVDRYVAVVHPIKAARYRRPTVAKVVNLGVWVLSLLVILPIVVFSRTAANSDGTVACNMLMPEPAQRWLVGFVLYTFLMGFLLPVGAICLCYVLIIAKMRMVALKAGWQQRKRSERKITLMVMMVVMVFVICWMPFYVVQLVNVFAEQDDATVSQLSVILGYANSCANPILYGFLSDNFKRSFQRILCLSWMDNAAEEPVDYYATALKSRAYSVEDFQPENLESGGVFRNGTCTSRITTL
Sequence of Somatostatin receptor type 3 (P32745 whole entry): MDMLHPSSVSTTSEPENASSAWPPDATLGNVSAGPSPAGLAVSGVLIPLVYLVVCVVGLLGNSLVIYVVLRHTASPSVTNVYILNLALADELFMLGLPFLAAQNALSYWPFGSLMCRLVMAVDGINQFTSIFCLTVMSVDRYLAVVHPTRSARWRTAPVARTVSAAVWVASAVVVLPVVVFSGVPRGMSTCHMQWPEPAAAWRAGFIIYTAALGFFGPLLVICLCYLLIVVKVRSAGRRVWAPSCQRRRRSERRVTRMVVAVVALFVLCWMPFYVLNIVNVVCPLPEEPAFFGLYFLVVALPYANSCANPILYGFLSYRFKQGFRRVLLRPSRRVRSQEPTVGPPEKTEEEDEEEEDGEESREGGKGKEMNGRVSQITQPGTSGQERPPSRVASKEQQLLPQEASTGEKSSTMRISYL

The pKi is the Ki on a negative log10 scale, so that one unit is a factor of ten. Turning to `NCCCc1nnc(CCc2c[nH]c3ccccc23)n1Cc1ccccc1`, the pKi in [1] was over 5.00; in assay [2], under 5.00.
Consider `COC(=O)[C@H](CCCN=C(N)N)NC(=O)CCCc1c(-c2ccccc2)[nH]c2c(F)cc(F)cc12`, for which the pKi is 5.33 in [3] and 9.15 in assay [4].
As a reminder, the pEC50 is the EC50 on a negative log10 scale, so that one unit is a factor of ten. On to `Clc1ccc(Cc2nnc(CCc3c[nH]c4ccccc34)n2CCCc2c[nH]cn2)cc1Cl`, for which, in assay [5], the pEC50 is 8.17. The Ratio Ki in the assay listed under Homo sapiens [6] is 350; in the assay listed under Homo sapiens [7], 250; in the assay filed under Homo sapiens [9] it was over 500; in the assay listed under Homo sapiens [11] it was over 500. For the same molecule, the pKi in [8] is under 5.00; in assay [1], 7.72; in assay [10], 5.32; in [12], 5.18; in assay [2], under 5.00.
As to `NCCCc1nnc(CCc2c[nH]c3ccccc23)n1Cc1ccc(Cl)c(Cl)c1`, the pKi in assay [1] and in [2] was under 5.00 in each case.
Consider `Clc1ccc(Cc2nnc(C3CCNCC3)n2CCc2c[nH]c3ccccc23)cc1Cl`, for which the pKi in [1] was under 5.00.
On the same count and under the same terms, the figure for `Clc1ccc(Cn2c(Cc3c[nH]c4ccccc34)nnc2C2CCNCC2)cc1Cl` is under 5.00; for `c1ccc(Cn2c(CCc3c[nH]cn3)nnc2Cc2c[nH]c3ccccc23)cc1` it is under 5.00.
In the case of `c1ccc(Cn2c(CCc3c[nH]c4ccccc34)nnc2C2CCNCC2)cc1`, the pKi in [1] and in assay [2] was under 5.00 throughout.
With `c1ccc(CCn2c(CCc3c[nH]cn3)nnc2CCc2c[nH]c3ccccc23)cc1`, the pKi in assay [1] is 5.69; in assay [2], under 5.00.
Take `c1ccc(Cn2c(CCc3c[nH]cn3)nnc2CCc2c[nH]c3ccccc23)cc1`: in [1], the pKi was 5.35.
For `NCCCc1nnc(Cc2c[nH]c3ccccc23)n1Cc1ccc(Cl)c(Cl)c1`, the pKi in assay [1] and in assay [2] was under 5.00 throughout.
With `c1ccc(Cn2c(Cc3c[nH]c4ccccc34)nnc2C2CCNCC2)cc1`, the pKi in assay [1] and in assay [2] was under 5.00 each time.
With `Clc1ccc(Cn2c(CCc3c[nH]c4ccccc34)nnc2C2CCNCC2)cc1Cl`, the pKi in assay [1] and in assay [2] was under 5.00 each time.
`Cc1ccc(S(=O)(=O)N[C@@H](CCN)C(=O)N[C@@H](Cc2ccccc2)C(N)=O)c2ccccc12`: the pKi in assay [13] is under 5.30.
Take `Clc1ccc(Cn2c(CCc3c[nH]cn3)nnc2CCc2c[nH]c3ccccc23)cc1Cl`: the pKi in assay [1] was 5.85; in [2], under 5.00.
Consider `Clc1ccc(Cc2nnc(CCc3c[nH]cn3)n2CCc2c[nH]c3ccccc23)cc1Cl`, for which the pKi is 5.32 in assay [1] and under 5.00 in assay [2].
As to `NCCCn1c(CCc2c[nH]c3ccccc23)nnc1Cc1ccc(Cl)c(Cl)c1`, the figures for the negative logarithm of the Ki (pKi) in [1] and in assay [2] were 5.62 and under 5.00, respectively.
On to `NCCCc1nnc(Cc2ccc(Cl)c(Cl)c2)n1CCc1c[nH]c2ccccc12`, for which, in [1], the pKi is under 5.00.
Regarding `Clc1ccc(Cn2c(CCc3c[nH]cn3)nnc2Cc2c[nH]c3ccccc23)cc1Cl`, the pKi in assay [1] and in assay [2] was under 5.00 in each case.
As to `NCCCc1nnc(Cc2c[nH]c3ccccc23)n1Cc1ccccc1`, in assay [1], the pKi was under 5.00.
